1 molecule from patent US4000281A, “Pyrazole derivatives” (priority 1971, dated 1976) can be followed below.

For this experiment, the system named is rhinovirus type 14 (prototype). In words: Inhibition of rhinovirus cytopathogenic effect in human embryonic lung cultures, type 14. The conditions noted are these: 50 and 75 μgm/ml. The experiment is classed as cell-based. The method, then:
Other tests were carried out to determine the inhibitory effect of 3-(4-pyridyl)-4-(2-hydroxyphenyl)-5-ethylpyrazole on various types of rhinovirus.
In each test two cultures of human embryonic lung were prepared of which one was treated with the above compound while the other served as control. The cultures were then infected with a strain of rhinovirus. The compound was used in concentrations of 50 and 75 μgm/ml and was considered to be active if the cytopathogenic effect of the rhinovirus was reduced by at least 75% as compared to the control culture. This cytopathogenic effect was determined by counting the number of plaques formed by destroyed cells.
Seven human types of rhinovirus were employed and the following results registered: […]
For orientation: Cytopathic effects are the visible damage that an infection or toxin causes in cultured cells.

Consider `CCc1[nH]nc(-c2ccncc2)c1-c1ccccc1O` [Compound A, 3-(4-pyridyl)-4-(2-hydroxyphenyl)-5-ethylpyrazole], for which the ACTIVITY result was “+ (active)”.
